Molecules are shown by their SMILES.

One assay relates to Cynodon dactylon. As to the kind of experiment: Growth-regulating action, postemergence, greenhouse (Example 35, Table 1). The format is in vivo. The conditions noted are these: for growth height relative: control 100. From the text:
(§1) The vessels used for the experiments were plastic pots having a volume of 1,130 cm^3 (Table A) or paraffined paper cups having a volume of 170 cm^3 (Table B). The pots and cups were filled with a sandy loam. The seeds of the test plants-separated by species-were sown shallow. Preemergence treatment (soil treatment) was effected immediately after sowing and before germination of the seeds. Seeds lying on the surface came into contact with the active ingredients. Postemergence treatment (leaf treatment) took place at an average growth height of the plants (depending on the rate of growth) of from 6 to 10 cm. The substances were suspended, emulsified or dissolved in water as diluent and applied by means of fine nozzles. The vessels were kept in the greenhouse in a temperature range of 12° C. to 25° C., and were regularly sprinkler irrigated for the duration of the experiment. The observation period was 6 to 8 weeks.
(§2) Further experiments were carried out in the greenhouse under the condition described in Example 11. […] As the plants which were examined liked the warmth (Eupghorbia geniculate, Arachis hypogaea, Cynodon dactylon), they were kept at from 20°-30° C. Cynodon dactylon from seed was cut once and the young growth treated postemergence.

The test system of another assay is Arachis hypogaea. Described as above. It counts as in vivo. The conditions noted are these: for growth height relative: control 100.
Source text: as §1, §2

The next assay deals with soybeans. As to the kind of experiment: Soybeans in a vegetation experiment in sandy loam (Example 19). It counts as in vivo, soybean (Gieso variety). The conditions noted are these: for Growth height: soil, 4 weeks; for response vs control in vivo at 3000 g/ha / response vs control in vivo at 6000 g/ha: Glycine max, 672 h, control 100, read-out: Growth height relative. Here is the method: Soybean plants of the Gieso variety were grown in a neutral sandy loam. Fertilization took place at the time of sowing, with 0.5 g N as ammonium nitrate and 1.0 g P2 O5 as secondary potassium phosphate. […]
After 4 weeks, the treated plants were much shorter than the control, and looked more compact as a result of the different angle of the leaves. The prior art compound used for comparison purposes was 2,3,5-triiodobenzoic acid (T; U.S. Pat. No. 2,978,838).

For `c1cc2sncc2cc1N1C2C3CC(C4N=NC34)C21` (centres unmarked), the Growth height in the assay on Cynodon dactylon (0.5 kg/ha) stood at 4 cm; in the assay on Cynodon dactylon (1.0 kg/ha) it was 4 cm; with Cynodon dactylon (2.0 kg/ha), 4 cm; with Arachis hypogaea (0.5 kg/ha) it was 13 cm; with Arachis hypogaea (1.0 kg/ha), 12 cm; with Arachis hypogaea (2.0 kg/ha), 9 cm. Also, the growth height relative is 36 in the assay on Cynodon dactylon (0.5 kg/ha); 36 in the assay with Cynodon dactylon (1.0 kg/ha); 36 in the assay with Cynodon dactylon (2.0 kg/ha); 81 with Arachis hypogaea (0.5 kg/ha); 75 in the assay on Arachis hypogaea (1.0 kg/ha); 56 in the assay on Arachis hypogaea (2.0 kg/ha).

With `Clc1ccc(N2C3C4CC(C5N=NC45)C32)cc1Cl` (centres unmarked), the Growth height in the assay on Cynodon dactylon (0.5 kg/ha) is given as 7 cm; with Cynodon dactylon (1.0 kg/ha) it was 6 cm; in the assay with Cynodon dactylon (2.0 kg/ha) it was 6 cm; in the assay with Arachis hypogaea (0.5 kg/ha) it was 14 cm; in the assay on Arachis hypogaea (1.0 kg/ha), 14 cm; in the assay on Arachis hypogaea (2.0 kg/ha), 10 cm. For the same compound, the growth height relative is 64 in the assay on Cynodon dactylon (0.5 kg/ha); 54 in the assay on Cynodon dactylon (1.0 kg/ha); 54 in the assay with Cynodon dactylon (2.0 kg/ha); 87 with Arachis hypogaea (0.5 kg/ha); 87 with Arachis hypogaea (1.0 kg/ha); 62 in the assay on Arachis hypogaea (2.0 kg/ha).

Take `c1csc(N2C3C4CC(C5N=NC45)C32)n1` (centres unmarked): the values for the Growth height in the assay with Cynodon dactylon (0.5 kg/ha), in the assay with Cynodon dactylon (1.0 kg/ha) and with Cynodon dactylon (2.0 kg/ha) were 8 cm, 7 cm and 6 cm, respectively. The results for the growth height relative with Cynodon dactylon (0.5 kg/ha), with Cynodon dactylon (1.0 kg/ha) and in the assay with Cynodon dactylon (2.0 kg/ha) were 73, 64 and 54, respectively.

In the case of `FC(F)(F)c1ccc(Cl)c(N2N=NC3C4CC(C5N=NC45)C32)c1` (centres unmarked) [drawing 396], in the assay on soybeans (3.0 kg/ha), the Growth height is 17.5 cm and the response vs control in vivo at 3000 g/ha came out at 76.1%. In addition, in the assay with soybeans (6.0 kg/ha), the Growth height is on record as 13.5 cm and the response vs control in vivo at 6000 g/ha amounted to 58.7%.

For the compound `Brc1ccc(N2N=NC3C4CC(C5N=NC45)C32)cc1` (centres unmarked) [drawing 397], in the assay with soybeans (3.0 kg/ha), the Growth height turned out to be 14.0 cm and the response vs control in vivo at 3000 g/ha came out at 60.9%. In the assay with soybeans (6.0 kg/ha), the Growth height is 14.0 cm and the response vs control in vivo at 6000 g/ha amounted to 60.9%.

For the compound `Brc1ccccc1N1N=NC2C3CC(C4N=NC34)C21` (centres unmarked) [drawing 398], in the assay with soybeans (3.0 kg/ha), the Growth height stood at 21.0 cm and the response vs control in vivo at 3000 g/ha was 91.3%. For the same compound, in the assay on soybeans (6.0 kg/ha), the Growth height was 17.0 cm and the response vs control in vivo at 6000 g/ha turned out to be 73.9%.

For the compound `Brc1cccc(N2N=NC3C4CC(C5N=NC45)C32)c1` (centres unmarked) [drawing 399], in the assay with soybeans (3.0 kg/ha), the Growth height was found to be 17.0 cm and the response vs control in vivo at 3000 g/ha was 73.9%. In the assay with soybeans (6.0 kg/ha), the Growth height was 16.0 cm and the response vs control in vivo at 6000 g/ha came out at 69.6%.

On to `FC(F)(F)c1cccc(N2C3C4CC(C5N=NC45)C32)c1` (centres unmarked) [drawing 434], for which the Growth height in the assay with Cynodon dactylon (0.5 kg/ha) was 4 cm; in the assay with Cynodon dactylon (1.0 kg/ha), 4 cm; in the assay with Cynodon dactylon (2.0 kg/ha), 3 cm; in the assay on Arachis hypogaea (0.25 kg/ha) it was 8 cm; with Arachis hypogaea (0.5 kg/ha), 8 cm; with Arachis hypogaea (1.0 kg/ha) it was 7.5 cm. The compound also showed a Growth height with Arachis hypogaea (2.0 kg/ha) of 5 cm. The growth height relative in the assay on Cynodon dactylon (0.5 kg/ha) amounted to 36; in the assay with Cynodon dactylon (1.0 kg/ha) it was 36; in the assay on Cynodon dactylon (2.0 kg/ha), 27; with Arachis hypogaea (0.25 kg/ha), 50; in the assay with Arachis hypogaea (0.5 kg/ha), 50; in the assay with Arachis hypogaea (1.0 kg/ha) it was 47. In addition, the growth height relative with Arachis hypogaea (2.0 kg/ha) came out at 31.

For `CN(C)NC(=O)CCC(=O)O` [drawing 437, reference compound], the Growth height with Cynodon dactylon (0.5 kg/ha) is listed as 12 cm; in the assay with Cynodon dactylon (1.0 kg/ha) it was 12 cm; with Cynodon dactylon (2.0 kg/ha), 9 cm; with Arachis hypogaea (0.25 kg/ha), 9 cm; with Arachis hypogaea (0.5 kg/ha), 8 cm; with Arachis hypogaea (1.0 kg/ha), 7 cm. Moreover, the Growth height in the assay on Arachis hypogaea (2.0 kg/ha) is listed as 7 cm. For the same compound, the growth height relative in the assay on Cynodon dactylon (0.5 kg/ha) was 109; in the assay on Cynodon dactylon (1.0 kg/ha) it was 109; in the assay on Cynodon dactylon (2.0 kg/ha) it was 82; in the assay with Arachis hypogaea (0.25 kg/ha) it was 56; in the assay on Arachis hypogaea (0.5 kg/ha), 50; in the assay with Arachis hypogaea (1.0 kg/ha), 44. In the assay with Arachis hypogaea (2.0 kg/ha), this compound gave a growth height relative of 44.

The values are drawn from patent US4257941A, “Polycyclic nitrogen-containing compounds” (BASF Aktiengesellschaft, priority 1976, dated 1981).
